Data set [1] can be described thus: CT perfusion scanning in intubated patients with cerebral ischemia treated with intranasal non-inhaled nitric oxide. The class given is in vivo, human.
The nature of data set [2]: Cerebral blood flow by cortical laser Doppler during intranasal nitric oxide in intubated rodents. Format: in vivo. The method, then: (§1) In intubated rodents, the inventors have shown that cerebral blood flow increases by 100% within 60 minutes of intranasal nitric oxide delivery.
Data set [3] is described as follows: Carotid artery occlusion model, Speckle laser Doppler, intubated rodents. Format: in vivo. Here is the method: as §1
Increase in cerebral blood flow is attributable to focal intranasal or intra-oral effect of nitric oxide rather than to systemic absorption of the gas. […] The effect on cerebral blood flow during intranasal delivery of nitric oxide with concomitant air inhalation into the lungs is therefore a focal effect on intranasal and intracranial vasculature attributable specifically to nitric oxide. […] In a non-intubated patient, nitric oxide inhalation can be prevented by occluding the nasal cavity anterior or posterior to the site of gas delivery. This is achieved by means of an anterior occlusion device such a rigid member, an expandable member, a compressible member, a sponge, a porous member, a plug, a balloon, foam and/or combinations of the foregoing, which prevent inhalation through the nostrils while maintaining a high concentration of nitric oxide in the nasal cavity. A non-intubated patient may be allowed to inhale air into the lungs during nitric oxide delivery into the nasal cavity by an optional central lumen with the distal orifice beyond the sites of nasal gas delivery and occlusion device.

Data set [4] in a line: Tolerability of intranasal delivery in humans (normal volunteers). The class given is in vivo, human. The following applies: high concentration. An excerpt:
While nitric oxide may be given intranasally and without inhalation into the lungs to intubated, comatose individuals the tolerability of intranasal nitric oxide in awake humans has not previously been investigated. The inventors have tested the effect of nitric oxide in humans (normal volunteers) during intranasal delivery. […] Therefore it can easily be tolerated by awake, non-intubated patients.

“Also recorded” adds a separate entry of the source.

Take `[N]=O` [nitric oxide]: in data set [1] (Post Rx), the “Cerebral Blood Flow, Changes in ACA Watershed” value was “Normalization,”; the “Mean Transit Time, Changes in ACA Watershed” value is “Normalization”; the “Mean Transit Time, Left Hemisphere (ischemic)” value is 6.0 s; the “Mean Transit Time, Right Hemisphere (normal)” value stood at 6.1 s. Further, the “Cerebral Blood Flow, increase in perfusion on L (ACA Watershed)” value in data set [1] (Post Rx vs Pre Rx, left ischemic hemisphere) came to 67% increase in. Also, the “cerebral perfusion, CT perfusion scanning” value in data set [1] (intubated patients / human with focal cerebral ischemia, before vs after treatment) was “improvement in cerebral perfusion; also recorded: augmentation of cerebral perfusion and normalization of regional perfusion abnormalities”. Moreover, in data set [2] (cortical laser Doppler, during intranasal administration), the “cerebral blood flow change (FIG. 8)” value is reported as “doubling of cerebral blood flow”. For the same compound, in data set [2] (within 60 minutes of intranasal delivery), the “cerebral blood flow increase” value was determined as 100%. Further, the “perfusion in the ischemic hemisphere” value in data set [3] (during carotid occlusion and following ligature release) is recorded as “perfusion is improved in the ischemic hemisphere”. Further, the “cerebral ischemia (FIG. 9)” value in data set [3] (intubated rodents, Speckle laser Doppler tracing) is recorded as “reduction of cerebral ischemia”. For the same compound, the “tolerability of intranasal delivery without inhalation” value in data set [4] is on record as “tolerated at high concentration”.

The values above are taken from patent publication US20130274651A1, “SYSTEM AND METHOD FOR IMPROVING OUTCOME OF CEREBRAL ISCHEMIA” (priority 2012, published 2013).
